# Data taken from patent publication US20210315970A1, “Hepatitis A Virus Replication Inhibitor Targeting mTOR” (Tokyo Metropolitan Institute of Medical Science, priority 2020, published 2021).
# B1: RARRES3: retinoic acid receptor responder protein 3, SEQ ID NO:2, phospholipase A / acyltransferase activity (protein, listed as Homo sapiens)
# chain: MASPHQEPKPGDLIEIFRLGYEHWALYIGDGYVIHLAPPSEYPGAGSSSVFSVLSNSAEVKRERLEDVVGGCCYRVNNSLDHEYQPRPVEVIISSAKEMVGQKMKYSIVSRNCEHFVTQLRYGKSRCKQVEKAKVEVGVATALGILVVAGCSFAIRRYQKKATA
# B2: IFN-γ: Recombinant human IFN-γ obtained from PeproTech (protein, UniProt P01579 24-161, looked up)
# Interferon gamma: QDPYVKEAENLKKYFNAGHSDVADNGTLFLGILKNWKEESDRKIMQSQIVSFYFKLFKNFKDDQSIQKSVETIKEDMNVKFFNSNKKKRDDFEKLTNYSVTDLNVQRKAIHELIQVMAELSPAAKTGKRKRSQMLFRG
# What was measured:
# [1] = tested on: HAV expressing NanoLuc reporter (18f strain, HAV/NLuc); assay: HAV/NLuc reporter virus replication in HuH-7 cells (NanoLuc activity); type: cell-based, hepatitis A virus; conditions: for viral replication level reduced to (NanoLuc activity): HuH-7 cells infected with HAV/NLuc, drug given 1 hour after infection, 48 hours post-infection; for virus replication compared to rapalogs that target mTOR alone: HAV, dual mTOR/PI3K inhibitors; for virus replication level reduced to (NanoLuc activity): highest dose (10 μM)
# Experimental: (§1) HuH-7 cells were infected with HAV/NLuc and drugs were given 1 hour after infection. 48 hours later, NanoLuc activities were measured to evaluate the virus replication levels. In addition, WST-8 reagent (Cell Counting Kit-8, Dojindo) was used to evaluate cell viability after the drug treatment.
# pHM175/18f-NLuc plasmid was prepared by PCR amplification of the NLuc open reading frame using pNL1.1 plasmid (Promega) as a template and primers containing a triglycine sequence flanked by XbaI and BamHI restriction enzyme sites. This PCR product was digested with these enzymes and ligated into similarly digested pSK-2A-Zeo-2B plasmid^36 to give pSK-2A-NLuc-2B plasmid. This plasmid was further digested with SacI/PflMI to cleave out the entire 2A-NLuc-2B fragment, which was ligated into similarly digested HM175/18f parental plasmid^37 to give pHM175/18f-NLuc reporter virus.
# (§2) GLuc analysis of HCV replication and dual luciferase assay for analyzing the transcriptional induction were carried out according to the previously described methods^31,32. NanoLuc activity was determined with Nano-Glo Luciferase Assay System (Promega) according to the manufacture's protocol. For virus replication assays, the medium was replaced with a drug-containing medium at 1 hour post inoculation.
# HuH-7 cells = assay: Cell viability after drug treatment (WST-8, Cell Counting Kit-8); type: cell-based, human; conditions: at concentrations that suppress virus replication
# Experimental: as §1
# MicroRNA-122 mimics were synthesized by Dharmacon and transfected as miRNA/miRNA* duplex by electroporation as previously described^33. Puromycin, Blasticidin and Ruxolitinib were purchased from InvivoGen. Pyridone 6 was obtained from EMD Millipore. Recombinant human IFN-λ1 and IFN-α and actinomycin D were purchased from Sigma-Aldrich. Recombinant human IFN-γ was obtained from PeproTech. PSI-7977 (sofosbuvir) was obtained from ChemScene and 2′-C-methyl adenosine (2′ CMA) was obtained from Santa Cruz Biotechnology. Cell viabilities were determined using Cell Counting Kit-8 (Dojindo) on 96-well plates according to the manufacturer's protocol.
# HAV [2] = assay: HAV-infected mouse model, viral RNA shed in feces (real-time PCR); type: in vivo; conditions: Ifnar1-/- C57BL/6 mice, 15 mg/kg orally from Day 5 after infection, daily for 14 days except Day 9 and Day 16
# Experimental: Type-I interferon receptor (Ifnar1)-knockout C57BL/6 mice were infected by tail vein injection of the virus equivalent to 1.7×10^9 genome copy number. Pictilisib (15 mg/kg) was administered 5 days after infection and viral RNA contained in the later shed feces was quantified by real-time PCR to analyze the antiviral action of the drug (Reference 3).
# The drug was orally administered from Day 5 following the infection and continuously administered daily for 14-consecutive days except Day 9 and Day 16. The viral RNA levels shed in the feces reflect the viral load in the liver and thus the viral RNA levels in the feces were quantified. As a result, the viral RNA level was reduced to about one-tenth by administration of the drug, confirming its antiviral effect (FIG. 6).
# Virus: HAV-HM175 strain, 1.7×10^9 GE, iv route
# Vehicle: 0.5% methyl cellulose/0.2% Tween 80
# Mice: Ifnar1^−/− C57BL/6, 5 animals/group
# The drug was orally administered from Day 5 following the infection for 14 consecutive days except Day 9 and Day 16. Viral level in the feces was quantified with time because it can serve as an indicator that reflects the viral level in the liver.
# [3] = phase II trial; cited from earlier work
# subgenomic HAV RNA = assay: Subgenomic HAV RNA replicon replication in transfected Huh-7.5 cells; type: cell-based, hepatitis A virus
# Experimental: FIG. 4i Inhibition of subgenomic HAV/NLuc RNA replication in the transfected Huh-7.5 cells by three different mTOR inhibitors and DAA (30 μM 2′CMA). **P<0.01 vs. DMSO control group (one-way analysis of variance with Dunnett's multiple comparison test).
# In vitro transcription of HAV or HCV RNA was performed with T7 RiboMAX Express Large Scale RNA production system (Promega) according to the manufacturer's protocol. Transfection of viral RNA was carried out in Gene Pulser Xcell Total System (Bio-Rad Laboratories) as previously described^33, or with TransIT-mRNAtransfection kit (Mirus) for HAV-Luc RNA as previously described^32.
# as §2
# [4] = tested on: human rhinovirus 14 (HRV-14); assay: HRV-14 replication with RARRES3 overexpression; type: cell-based
# DENV = DENV replication in Huh-7.5 cells; type: cell-based, dengue virus; conditions: RARRES3 overexpression
# Experimental: (§3) High-titer HAV (HM175/18f strain) was mycoplasma-free and was prepared as previously described^34. HAV infection was performed at a multiplicity of infection (MOI) of 10. SeV (Cantell strain) was obtained from Charles River Laboratories, and was inoculated at 50 U ml^−1 unless otherwise indicated. Infection with HCV-carrying Gaussia luciferase (GLuc) reporter was performed as previously described^32. DENV serotype 2 (olSa-054 strain) and ZIKV (MR-766 and AB-59 strains) were propagated in Vero, C6/36 or Huh-7.5 cells and inoculated at MOI=1 as previously described^35.
# Plasmids encoding capsid and subgenomic RNA containing NS1-5 regions fused with a NanoLuc reporter flanked by 5′ and 3′ untranslated RNAs derived from DENV1 (D1/Hu/Saitama/NIID100/2014 strain) and DENV2-derived premembrane and envelope protein (olSa-054 strain) were transfected into HEK293T cells. Infectious virons secreted in the supernatant were harvested according to the previously described method^38.
# Primer pair targeting DENV genomic RNA, 5′-[…]-3′ (SEQ ID NO:57) and 5′-CATCATTAAGTCGAGGGCC-3′ (SEQ ID NO:58), or primer pair targeting ZIKV genomic RNA, 5′-[…]-3′ (SEQ ID NO:59) and 5′[…]-3′ (SEQ ID NO:60) was used with RNA-direct SYBR Green Realtime PCR Master Mix (TOYOBO) to quantify DENV and ZIKV RNA abundance.
# HCV = HCV replication in Huh-7.5 cells; type: cell-based, hepatitis C virus; conditions: RARRES3 overexpression
# Experimental: as §3, §2
# HAV [5] = assay: HAV replication in cells overexpressing RARRES3 or C113S mutant (lentiviral vectors); type: cell-based, hepatitis A virus; conditions: cells overexpressing the protein
# HAV [6] = assay: HAV replication in Huh-7.5 cells; type: cell-based, hepatitis A virus; conditions: IRF1-dependent
# Experimental: as §3
# Total RNA extraction was performed using RNeasy Mini Kit (QIAGEN), QIAamp viral RNA Mini Kit (QIAGEN) or TRIzol (Thermo Fisher). HAV genomic RNA was detected by a two-step RT-qPCR analysis using SuperScript III First-Strand Synthesis System (Thermo Fisher Scientific) and iTaq Universal SYBR Green Supermix (Bio-Rad Laboratories), or Thunderbird SYBR qPCR Mix (TOYOBO). 5′-GGTAGGCTACGGGTGAAAC-3′ (SEQ ID NO:3) and 5′-[…]-3′ (SEQ ID NO:4) were used as HAV-specific primers
molecule,measurement,setting,value
"CCC(=O)N1CCN(c2ccc(-n3c(=O)ccc4cnc5ccc(-c6cnc7ccccc7c6)cc5c43)cc2C(F)(F)F)CC1 [Torin-1, 1-[4-[4-(1-oxopropyl)-1-piperazinyl]-3-(trifluoromethyl)phenyl]-9-(3-quinolinyl)-benzo[h]-1,6-naphthyridin-2(1H)-one]",HAV replication (effect in words),[1]; HAV/NLuc-infected cells,suppressed strongly
same,viral replication level reduced to (NanoLuc activity),[1],one-hundredth
same,cell viability,HuH-7 cells,without having an influence on the cell viability
CO[C@H]1C[C@@H]2CC[C@@H](C)[C@@](O)(O2)C(=O)C(=O)N2CCCC[C@H]2C(=O)O[C@H]([C@H](C)C[C@@H]2CC[C@@H](O)[C@H](OC)C2)CC(=O)[C@H](C)/C=C(\C)[C@@H](O)[C@@H](OC)C(=O)[C@H](C)C[C@H](C)/C=C/C=C/C=C/1C [rapamycin],cell viability,HuH-7 cells,without having an influence on the cell viability
Oc1cccc(-c2nc(N3CCOCC3)c3oc4ncccc4c3n2)c1 [PI-103],virus replication compared to rapalogs that target mTOR alone,[1],one-tenth
same,virus replication level reduced to (NanoLuc activity),[1]; HAV/NLuc-infected cells,about one-thousandth
CO[C@H]1C[C@@H]2CC[C@@H](C)[C@@](O)(O2)C(=O)C(=O)N2CCCC[C@H]2C(=O)O[C@H]([C@H](C)C[C@@H]2CC[C@@H](OCCO)[C@H](OC)C2)CC(=O)[C@H](C)/C=C(\C)[C@@H](O)[C@@H](OC)C(=O)[C@H](C)C[C@H](C)/C=C/C=C/C=C/1C [everolimus],viral replication level reduced to (NanoLuc activity),[1],one-twentieth
same,cell viability,HuH-7 cells,without having an influence on the cell viability
CO[C@H]1C[C@@H]2CC[C@@H](C)[C@@](O)(O2)C(=O)C(=O)N2CCCC[C@H]2C(=O)O[C@H]([C@H](C)C[C@@H]2CC[C@@H](OC(=O)C(C)(CO)CO)[C@H](OC)C2)CC(=O)[C@H](C)/C=C(\C)[C@@H](O)[C@@H](OC)C(=O)[C@H](C)C[C@H](C)/C=C/C=C/C=C/1C [temsirolimus],viral replication level reduced to (NanoLuc activity),[1],one-twentieth
same,cell viability,HuH-7 cells,without having an influence on the cell viability
CS(=O)(=O)N1CCN(Cc2cc3nc(-c4cccc5[nH]ncc45)nc(N4CCOCC4)c3s2)CC1 [Pictilisib],viral RNA level in the feces reduced to,HAV [2],about one-tenth
same,safety to human,[3],confirmed to be safe to human
same,virus replication compared to rapalogs that target mTOR alone,[1],one-tenth
same,virus replication level reduced to (NanoLuc activity),[1]; HAV/NLuc-infected cells,about one-thousandth
"C[C@@]1(O)[C@H](O)[C@@H](CO)O[C@H]1n1cnc2c(N)ncnc21 [2′CMA, 2′-C-methyl adenosine]",subgenomic HAV/NLuc RNA replication,"subgenomic HAV RNA; transfected Huh-7.5 cells, 2′CMA 30 μM",Inhibition
B1,HRV-14 replication,[4],did not restrict
same,DENV replication,DENV,did not restrict
same,HCV replication,HCV,did not restrict
same,HAV replication,HAV [5],strongly suppressed
same,replication of subgenomic RNA replicon,subgenomic HAV RNA; Huh-7.5 cells expressing RARRES3,suppressed
B2,HAV replication,HAV [6],restricted HAV replication
